Laboratory results reported in the Kinase Knowledgebase extract (Sharma et al. 2016).
Values after ≈ are worked out from the molar mass of the structure shown.

Biological target: EGFR (UniProt P00533)
Sequence (P00533 whole entry, looked up): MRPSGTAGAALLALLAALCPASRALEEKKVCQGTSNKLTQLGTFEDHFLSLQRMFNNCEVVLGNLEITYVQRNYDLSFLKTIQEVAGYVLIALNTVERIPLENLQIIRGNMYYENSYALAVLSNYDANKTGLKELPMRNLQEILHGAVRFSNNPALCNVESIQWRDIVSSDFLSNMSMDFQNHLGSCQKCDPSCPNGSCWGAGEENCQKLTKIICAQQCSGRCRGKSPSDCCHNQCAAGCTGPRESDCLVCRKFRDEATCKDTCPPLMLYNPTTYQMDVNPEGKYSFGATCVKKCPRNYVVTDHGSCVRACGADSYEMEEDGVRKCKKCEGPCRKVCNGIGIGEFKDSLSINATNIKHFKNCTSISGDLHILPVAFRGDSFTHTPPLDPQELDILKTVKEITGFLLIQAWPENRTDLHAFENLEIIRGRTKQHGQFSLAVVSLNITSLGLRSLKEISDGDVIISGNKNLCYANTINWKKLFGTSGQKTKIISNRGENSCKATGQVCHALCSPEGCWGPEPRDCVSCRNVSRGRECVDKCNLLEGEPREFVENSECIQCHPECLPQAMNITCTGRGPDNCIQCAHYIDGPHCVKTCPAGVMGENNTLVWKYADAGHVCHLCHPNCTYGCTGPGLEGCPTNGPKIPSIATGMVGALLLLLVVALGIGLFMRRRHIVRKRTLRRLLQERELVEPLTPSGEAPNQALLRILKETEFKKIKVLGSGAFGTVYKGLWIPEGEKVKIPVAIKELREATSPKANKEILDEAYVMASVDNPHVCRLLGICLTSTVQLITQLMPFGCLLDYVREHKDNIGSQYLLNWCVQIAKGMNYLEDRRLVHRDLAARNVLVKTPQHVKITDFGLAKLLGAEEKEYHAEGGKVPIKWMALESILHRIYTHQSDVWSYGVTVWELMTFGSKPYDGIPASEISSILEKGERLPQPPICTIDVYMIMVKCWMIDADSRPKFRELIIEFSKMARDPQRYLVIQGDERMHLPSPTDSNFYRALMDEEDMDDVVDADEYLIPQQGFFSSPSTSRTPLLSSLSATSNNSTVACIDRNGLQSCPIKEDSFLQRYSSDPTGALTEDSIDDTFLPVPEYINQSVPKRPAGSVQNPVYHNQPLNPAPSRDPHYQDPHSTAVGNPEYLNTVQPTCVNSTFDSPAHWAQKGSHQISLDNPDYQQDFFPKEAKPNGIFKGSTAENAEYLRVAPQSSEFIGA

IC50 | SMILES
< 0.4 µg/mL | O=S(=O)(O)c1cccc(Nc2ncnc(Nc3cc(-c4ccco4)[nH]n3)n2)c1
0.4 to 2.4 µg/mL (≈ 0.812 to 4.87 µM) | Fc1cccc(CNc2nc3ccccc3n2-c2ncnc(Nc3cccc(Cn4ccnn4)c3)n2)c1
> 4.5 µg/mL | COc1cc(Nc2ncnc(-n3ccc4ccc(F)cc43)n2)cc(OC)c1OC
> 4.5 µg/mL | COc1cc(Nc2ncnc(-n3c(Nc4ccc(N(C)C)cc4)nc4ccccc43)n2)cc(OC)c1OC
> 4.5 µg/mL | COC(=O)c1ccc(N(C)c2ncnc(Nc3ccc(OC)c(OC)c3)n2)cc1
< 0.4 µg/mL | COc1cc(Nc2ncnc(Nc3cccc4ccccc34)n2)cc(OCCN2CCOCC2)c1OC
> 4.5 µg/mL | COc1cc(Nc2ncnc(-c3cccnc3Cl)n2)cc(OC)c1OC
2.4 to 3.5 µg/mL (≈ 7.2 to 10.5 µM) | COc1ccc(Nc2ncnc(-n3c(N)nc4ccccc43)n2)cc1
> 4.5 µg/mL | COc1cc(Nc2ncnc(Oc3ccc(OCc4ccccc4)cc3)n2)cc(OC)c1OC
< 0.4 µg/mL | CN(c1cccc(Cl)c1)c1ncnc(Nc2ccc(CC(=O)O)cc2)n1
2.4 to 3.5 µg/mL (≈ 5.93 to 8.65 µM) | c1coc(-c2cc(Nc3ncnc(Nc4ccc(N5CCOCC5)cc4)n3)[nH]n2)c1
> 4.5 µg/mL | COc1cc(Nc2ncnc(Nc3ccccn3)n2)cc(OC)c1OC
> 4.5 µg/mL | COc1cc(Nc2ncnc(Nc3cc(-c4ccc(C(=O)NCCc5ccccc5)cc4)n[nH]3)n2)cc(OC)c1OC
> 4.5 µg/mL | Cc1ccc2c(c1)CCCN2c1ncnc(NCc2ccc(C(=O)O)cc2)n1
> 4.5 µg/mL | COc1cc(Nc2ncnc(-n3c(NCc4ccccn4)nc4ccccc43)n2)cc(OC)c1OCCn1ccnn1
< 0.4 µg/mL | COc1ccc(Nc2ncnc(Nc3cccc(C)c3)n2)cc1OC
3.5 to 4.5 µg/mL (≈ 7.3 to 9.38 µM) | COc1ccc(-c2cn[nH]c2Nc2ncnc(Nc3cc(OC)c(OC)c(OC)c3)n2)cc1OC
> 4.5 µg/mL | COc1cc(Nc2ncnc(-n3c(Cl)nc4ccccc43)n2)cc(OC)c1OC
> 4.5 µg/mL | COc1cc(Nc2ncnc(-c3ccnc(Cl)c3)n2)cc(OC)c1OC
0.4 to 2.4 µg/mL (≈ 0.982 to 5.89 µM) | COc1cc(Nc2ncnc(N3c4ccccc4CCC3C)n2)cc(OC)c1OC (stereo unspecified)
> 4.5 µg/mL | Nc1ccc(Nc2ncnc(-c3ccccc3)n2)cc1
< 0.4 µg/mL | Cc1cccc(Nc2ncnc(Nc3cccc(Br)c3)n2)c1
< 0.4 µg/mL | CC(=O)Nc1ccc(Nc2ncnc(N3CCCc4cc(C)ccc43)n2)cc1
2.4 to 3.5 µg/mL (≈ 6.51 to 9.5 µM) | COc1cccc(-c2ncnc(Nc3cc(OC)c(OC)c(OC)c3)n2)c1
< 0.4 µg/mL | CN(c1cccc(Cl)c1)c1ncnc(Nc2ccc3nn(C)cc3c2)n1
0.4 to 2.4 µg/mL (≈ 0.89 to 5.34 µM) | COc1ccc(-c2cc(Nc3ncnc(Nc4cc(OC)c(OC)c(OC)c4)n3)[nH]n2)cc1
> 4.5 µg/mL | COc1ccc(Nc2ncnc(NCCNC(C)=O)n2)cc1OC

IC50 | SMILES
> 4.5 µg/mL | Nc1nc2ccccc2n1-c1ncnc(Nc2cccc(CC(=O)O)c2)n1
0.4 to 2.4 µg/mL (≈ 1.08 to 6.48 µM) | COc1cc(Nc2ncnc(Nc3ccc(O)nc3)n2)cc(OC)c1OC
> 4.5 µg/mL | COc1cc(Nc2ncnc(-c3cccnc3NC(C)C)n2)ccc1NC(=O)CCCN1CCNCC1
> 4.5 µg/mL | COc1cc(Nc2ncnc(-c3cccnc3NC(C)C)n2)cc(OC)c1OC
< 0.4 µg/mL | COc1ccc(Nc2ncnc(N(C)c3cccc(Cl)c3)n2)cc1
> 4.5 µg/mL | NC(=O)c1ccc(Nc2ncnc(-n3c(=O)[nH]c4ccccc43)n2)cc1
0.4 to 2.4 µg/mL (≈ 1.07 to 6.45 µM) | Nc1nc2ccccc2n1-c1ncnc(Nc2ccc(Cl)c(Cl)c2)n1
0.4 to 2.4 µg/mL (≈ 1.01 to 6.06 µM) | CN(c1cccc(Cl)c1)c1ncnc(Nc2ccc(OC(F)(F)F)cc2)n1
> 4.5 µg/mL | Nc1ncnc(Nc2ccc(F)cc2F)n1
> 4.5 µg/mL | O=c1[nH]c2ccccc2n1-c1ncnc(Nc2cccc3ncccc23)n1
> 4.5 µg/mL | CC(C)Nc1ncccc1-c1ncnc(Nc2cccc(CC(=O)O)c2)n1
> 4.5 µg/mL | COc1cc(Nc2ncnc(-c3cccnc3Cl)n2)cc(OC)c1OCCN1CCOCC1
2.4 to 3.5 µg/mL (≈ 4.96 to 7.24 µM) | COc1cc(Nc2ncnc(-n3c(NCc4ccccc4)nc4ccccc43)n2)cc(OC)c1OC
3.5 to 4.5 µg/mL (≈ 9.96 to 12.8 µM) | Fc1ccc(CNc2ncnc(Nc3cc(-c4ccco4)n[nH]3)n2)cc1
2.4 to 3.5 µg/mL (≈ 6.87 to 10 µM) | COc1ccc(Nc2ncnc(-n3c(N)nc4ccccc43)n2)cc1O
> 4.5 µg/mL | CCN(CC)CCCCNc1cc(-c2ncnc(Nc3cc(OC)c(OC)c(OC)c3)n2)ccn1
< 0.4 µg/mL | COc1ccc(Nc2ncnc(Nc3cc(OC)c(OC)c(OC)c3)n2)cc1O
< 0.4 µg/mL | CN(c1cccc(Cl)c1)c1ncnc(Nc2cccc(Cn3ccnn3)c2)n1
2.4 to 3.5 µg/mL (≈ 6.07 to 8.85 µM) | COc1cc(Nc2ncnc(Nc3ccc(C(C)=O)cc3)n2)cc(OC)c1OC
< 0.4 µg/mL | CN(c1cccc(Cl)c1)c1ncnc(Nc2cccc(Br)c2)n1
> 4.5 µg/mL | c1ccc(CCNc2ncnc(Nc3ccc4c(cnn4Cc4ccccc4)c3)n2)cc1
2.4 to 3.5 µg/mL (≈ 6.56 to 9.57 µM) | Cc1ccc2c(c1)CCCN2c1ncnc(Nc2cccc(Cl)c2C)n1
< 0.4 µg/mL | O=C(O)CCc1cccc(Nc2ncnc(Nc3cc(-c4ccco4)[nH]n3)n2)c1
3.5 to 4.5 µg/mL (≈ 6.53 to 8.4 µM) | COc1cc(Nc2ncnc(-n3c(NCc4ccc(F)cc4Cl)nc4ccccc43)n2)cc(OC)c1OC
> 4.5 µg/mL | COc1cc(Nc2ncnc(-c3cccnc3Nc3ccc(C(F)(F)F)cc3)n2)cc(OC)c1OC
> 4.5 µg/mL | COCCOc1ccc(Nc2ncnc(Nc3ccc(C)c(F)c3)n2)cc1OCCOC
0.4 to 2.4 µg/mL (≈ 0.88 to 5.28 µM) | COC(=O)c1ccc(-c2cc(Nc3ncnc(NCCc4c[nH]c5ccccc45)n3)[nH]n2)cc1

IC50 | SMILES
> 4.5 µg/mL | COc1ccc(CNc2nc3ccccc3n2-c2ncnc(Nc3cc(OC)c(OC)c(OC)c3)n2)cc1
< 0.4 µg/mL | COc1cc(Nc2nc(F)nc(Nc3cccc(OC(F)(F)F)c3)n2)cc(OC)c1OC
> 4.5 µg/mL | COc1cc(Nc2ncnc(-n3c(N)nc4cc(C(F)(F)F)ccc43)n2)cc(OC)c1OC.COc1cc(Nc2ncnc(-n3c(N)nc4ccc(C(F)(F)F)cc43)n2)cc(OC)c1OC
> 4.5 µg/mL | CC[C@H]1CN(c2ccc(-c3ncnc(Nc4cc(OC)c(OC)c(OC)c4)n3)cn2)CCN1
0.4 to 2.4 µg/mL (≈ 1.01 to 6.07 µM) | c1ccc(Cn2ncc3cc(Nc4ncnc(Nc5ncccn5)n4)ccc32)cc1
> 4.5 µg/mL | COc1cc(Nc2ncnc(N[C@@H](CO)c3ccccc3)n2)cc(OC)c1OC
> 4.5 µg/mL | COc1cc(Nc2ncnc(-c3ccc(N4CCOCC4)nc3)n2)cc(OC)c1OC
< 0.4 µg/mL | NC(=O)Cc1cccc(Nc2ncnc(-n3c(NCc4ccccc4)nc4ccccc43)n2)c1
> 4.5 µg/mL | COc1cc(Nc2ncnc(-n3c(Nc4cc(OC)c(OC)c(OC)c4)nc4ccccc43)n2)cc(OC)c1OC
> 4.5 µg/mL | CCc1ccccc1Nc1ncnc(-n2cccc2)n1
0.4 to 2.4 µg/mL (≈ 1.07 to 6.41 µM) | COc1cc(Nc2ncnc(Nc3nc(C)cs3)n2)cc(OC)c1OC
> 4.5 µg/mL | COc1ccccc1Nc1ncnc(-c2ccccc2)n1
> 4.5 µg/mL | COc1cc(Nc2ncnc(-c3cccnc3Nc3cccc(Oc4ccccc4)c3)n2)cc(OC)c1OC
0.4 to 2.4 µg/mL (≈ 1.01 to 6.05 µM) | c1ccc(-c2cc(Nc3ncnc(Nc4cccc(-c5cnco5)c4)n3)[nH]n2)cc1
0.4 to 2.4 µg/mL (≈ 1.13 to 6.79 µM) | C#Cc1cccc(Nc2ncnc(Nc3cc(-c4ccccc4)n[nH]3)n2)c1
> 4.5 µg/mL | COc1cc(Nc2ncnc(-c3ccc(NCCCN)nc3)n2)cc(OC)c1OC
> 4.5 µg/mL | COC(=O)c1ccc(-c2cc(Nc3ncnc(NCCCO)n3)[nH]n2)cc1
< 0.4 µg/mL | c1ccc(Cn2ncc3cc(Nc4ncnc(Nc5ccc6ncsc6c5)n4)ccc32)cc1
< 0.4 µg/mL | COc1cc(Nc2ncnc(Nc3cccc4ccccc34)n2)cc(OC)c1OC
3.5 to 4.5 µg/mL (≈ 9.25 to 11.9 µM) | COc1cc(Nc2ncnc(-n3cnc4ccccc43)n2)cc(OC)c1OC
> 4.5 µg/mL | COc1cc(Nc2ncnc(N3CCCC3)n2)cc(OC)c1OC
> 4.5 µg/mL | O=c1[nH]c2ccccc2n1-c1ncnc(Nc2cccc3cccnc23)n1
0.4 to 2.4 µg/mL (≈ 1.08 to 6.46 µM) | O=c1[nH]c2ccccc2n1-c1ncnc(Nc2cccc(-c3cnco3)c2)n1
> 4.5 µg/mL | N#Cc1ccc(Nc2ncnc(-n3c(=O)[nH]c4ccccc43)n2)cc1
> 4.5 µg/mL | COc1ccc(Nc2ncnc(-n3cccc3)n2)c(OC)c1
0.4 to 2.4 µg/mL (≈ 1.18 to 7.07 µM) | CC(C)(C)c1cc(Nc2ncnc(Nc3ccc(CO)cc3)n2)[nH]n1
> 4.5 µg/mL | Clc1cc(Cl)cc(Nc2ncnc(-n3cccc3)n2)c1

IC50 | SMILES
> 4.5 µg/mL | COc1cc(Nc2ncnc(-n3c(NCc4ccccn4)nc4ccccc43)n2)cc(OC)c1OC
< 0.4 µg/mL | CCOc1ccc(Nc2ncnc(N(C)c3cccc(Cl)c3)n2)cc1OCC
< 0.4 µg/mL | COc1cc(Nc2ncnc(Nc3cc(F)cc(C(F)(F)F)c3)n2)cc(OC)c1OC
> 4.5 µg/mL | C=CCNC(=O)c1ccc(-c2cc(Nc3ncnc(Nc4cc(OC)c(OC)c(OC)c4)n3)[nH]n2)cc1
> 4.5 µg/mL | Oc1ccc(Nc2ncnc(-c3ccccc3)n2)cc1
> 4.5 µg/mL | COc1cc(Nc2ncnc(-n3c(N)nc4cc(Cl)ccc43)n2)cc(OC)c1OC.COc1cc(Nc2ncnc(-n3c(N)nc4ccc(Cl)cc43)n2)cc(OC)c1OC
> 4.5 µg/mL | COc1cc(Nc2ncnc(Nc3nnc(-c4ccccc4)[nH]3)n2)cc(OC)c1OC
3.5 to 4.5 µg/mL (≈ 9.79 to 12.6 µM) | COc1cc(Nc2ncnc(Nc3cc(C)[nH]n3)n2)cc(OC)c1OC
0.4 to 2.4 µg/mL (≈ 1.02 to 6.1 µM) | COc1cc(Nc2ncnc(Nc3ccc4c(c3)CCC4)n2)cc(OC)c1OC
3.5 to 4.5 µg/mL (≈ 7.24 to 9.31 µM) | COc1cc(Nc2ncnc(-n3c(Nc4ccccc4C)nc4ccccc43)n2)cc(OC)c1OC
2.4 to 3.5 µg/mL (≈ 4.56 to 6.65 µM) | COc1cc(Nc2ncnc(-n3c(NCc4ccc(N(C)C)cc4)nc4ccccc43)n2)cc(OC)c1OC
> 4.5 µg/mL | COc1cc(Nc2ncnc(-c3cccnc3Nc3cccc4c3CCCC4)n2)cc(OC)c1OC
0.4 to 2.4 µg/mL (≈ 0.802 to 4.81 µM) | CCN(CC)CCOc1ccc(Nc2ncnc(Nc3cc(OC)c(OC)c(OC)c3)n2)cc1OC
> 4.5 µg/mL | CN(c1cccc(Cl)c1)c1ncnc(Nc2cc(Cl)c(Cl)c(Cl)c2)n1
> 4.5 µg/mL | O=[N+]([O-])c1cccc(Nc2ncnc(-c3cccs3)n2)c1
0.4 to 2.4 µg/mL (≈ 1.09 to 6.57 µM) | COC(=O)Cc1cccc(Nc2ncnc(Nc3ccc(C)c(O)c3)n2)c1
> 4.5 µg/mL | CCN(CC)C(=O)C1CCCN(c2ncnc(Nc3cc(OC)c(OC)c(OC)c3)n2)C1 (stereo unspecified)
> 4.5 µg/mL | COc1cc(OC)nc(Nc2ncnc(-n3c(=O)[nH]c4ccccc43)n2)n1
> 4.5 µg/mL | COc1cc(Nc2ncnc(NN3CCOCC3)n2)cc(OC)c1OC
> 4.5 µg/mL | COc1cc(Nc2ncnc(-n3c(NCC(C)C)nc4ccccc43)n2)cc(OC)c1OC
> 4.5 µg/mL | COc1ccc(CCNc2ncnc(Nc3cc(-c4ccco4)[nH]n3)n2)cc1OC
0.4 to 2.4 µg/mL (≈ 0.804 to 4.82 µM) | COc1cc(Nc2ncnc(-n3c(NCCc4ccccc4)nc4ccccc43)n2)cc(OC)c1OC
> 4.5 µg/mL | COc1cc(Nc2ncnc(Nc3c(C)n(C)n(-c4ccccc4)c3=O)n2)cc(OC)c1OC
2.4 to 3.5 µg/mL (≈ 5.93 to 8.65 µM) | COc1cc(Nc2ncnc(Nc3cccc4ncccc34)n2)cc(OC)c1OC

SMILES | IC50
COc1cc(Nc2ncnc(-c3cccnc3Nc3ccccc3)n2)cc(OC)c1OC | > 4.5 µg/mL
